Measured values as given in patent US8278459B2, “UV-filter compounds” (DSM IP Assets B.V., priority 2007, dated 2012).

Experiment: Skin binding experiment (pig ear skin, THF extraction, HPLC recovery)
Assay type: in vitro ADME
Details: for % UV filter bound to the skin: 2% (w) THF solution applied topically at 1 mg/cm^2, 32±1° C., duplicates
Description: The skin binding properties were determined by the following experiment. Skin samples (1 cm^2 each) were prepared by punching out from pig ear. The skin samples were placed in a 2 mL eppendorf plastic tube. The studied compounds were applied topically as a 2% (w) THF solution on the skin surface at a mean dose rate of 1 mg/cm^2. The samples were placed in a heatingblock and maintained at a normal skin temperature of 32±1° C. for the duration of the exposure period. At the end of the experiment, after 24 hours, respectively 72 h, each skin probe was extracted by shaking with 1000 μl of THF for 1 min and the resulting solution was analyzed by HPLC. The experiments were run in duplicates.
Compounds B and was tested for their skin-binding capacity, while compound A (described in Kawashita, Y; Nakamichi, N.; Kawabata, H.; Hayashi, M. Org. Lett. 2003, 5, 3713-3715) was used as a non-binding reference.
Skin fraction samples were injected into the HPLC system using DAD detection with the following conditions:
The % of UV filter bound to the skin was determined by calculation of the recovery rate using the following equation: […]

SMILES	% UV filter bound to the skin (After 24 h) [%]	% UV filter bound to the skin (After 72 h) [%]	adhesion to the skin (in words) (compared to the non-binding compound A)
Cc1ccc(-c2nc3ccccc3o2)cc1 [Compound A, reference compound]	36.3	61.1	–
O=C(CO)C(O)C(O)c1ccc(-c2nc3ccccc3o2)cc1 (centres unmarked) [Compound B, 4-(4-Benzoxazol-2-yl-phenyl)-1,3,4-trihydroxy-butan-2-one]	96.6	100	significant adhesion to the skin
